Test results: ChEMBL document CHEMBL1255551, “Synthesis and biological evaluation of C-2 halogenated analogs of salvinorin A” (Bioorg Med Chem Lett, 2010)
Active and inactive are the calls of the source. No cut-off for these calls is given here.

What was measured:
[1] = biological target: T1, Kappa-type opioid receptor (Homo sapiens, UniProt P41145); test: Agonist activity at human kappa opioid receptor expressed in CHO cells assessed as increase of [35S]GTPgammaS binding at 240 nM relative to U50488H; format: functional, cell-based
[2] = biological target: T1, Kappa-type opioid receptor; test: Agonist activity at human kappa opioid receptor expressed in CHO cells assessed as increase of [35S]GTPgammaS binding; format: functional, cell-based
[3] = biological target: T1, Kappa-type opioid receptor; test: Displacement of [3H]diprenorphine from human kappa opioid receptor expressed in CHO cells; format: cell-based
[4] = biological target: T1, Kappa-type opioid receptor; test: Displacement of [3H]diprenorphine from human kappa opioid receptor expressed in CHO cells at 3 uM; format: cell-based
[5] = biological target: Mu-type opioid receptor (Rattus norvegicus) (UniProt P33535); test: Displacement of [3H]diprenorphine from rat mu opioid receptor expressed in CHO cells at 3 uM; format: cell-based
[6] = biological target: Delta-type opioid receptor (Mus musculus) (UniProt P32300); test: Displacement of [3H]diprenorphine from mouse FLAG-tagged delta opioid receptor expressed in CHO cells at 3 uM; format: cell-based
Delta-type opioid receptor (Mus musculus), sequence (P32300 whole entry): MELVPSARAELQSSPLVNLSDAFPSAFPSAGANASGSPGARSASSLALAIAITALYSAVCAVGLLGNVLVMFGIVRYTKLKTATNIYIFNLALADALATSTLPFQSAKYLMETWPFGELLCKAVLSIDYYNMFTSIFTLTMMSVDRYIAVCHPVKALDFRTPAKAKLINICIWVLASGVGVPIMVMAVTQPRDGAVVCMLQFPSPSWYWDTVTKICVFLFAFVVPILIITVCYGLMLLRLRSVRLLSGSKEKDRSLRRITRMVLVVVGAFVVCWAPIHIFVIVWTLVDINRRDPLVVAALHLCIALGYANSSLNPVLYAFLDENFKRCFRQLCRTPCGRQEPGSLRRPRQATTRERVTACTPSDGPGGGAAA

T1 sequence (P41145 whole entry): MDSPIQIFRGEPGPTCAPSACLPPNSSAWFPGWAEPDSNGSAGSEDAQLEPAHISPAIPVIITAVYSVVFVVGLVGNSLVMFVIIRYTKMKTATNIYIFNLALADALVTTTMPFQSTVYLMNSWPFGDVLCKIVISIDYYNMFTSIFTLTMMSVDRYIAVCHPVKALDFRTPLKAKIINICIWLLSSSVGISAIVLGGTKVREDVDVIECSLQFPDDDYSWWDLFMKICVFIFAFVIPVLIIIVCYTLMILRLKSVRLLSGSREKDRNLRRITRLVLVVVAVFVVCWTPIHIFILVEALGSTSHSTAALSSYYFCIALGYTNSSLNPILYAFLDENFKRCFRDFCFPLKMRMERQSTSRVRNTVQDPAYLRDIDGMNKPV
Mu-type opioid receptor (Rattus norvegicus), sequence (P33535 whole entry): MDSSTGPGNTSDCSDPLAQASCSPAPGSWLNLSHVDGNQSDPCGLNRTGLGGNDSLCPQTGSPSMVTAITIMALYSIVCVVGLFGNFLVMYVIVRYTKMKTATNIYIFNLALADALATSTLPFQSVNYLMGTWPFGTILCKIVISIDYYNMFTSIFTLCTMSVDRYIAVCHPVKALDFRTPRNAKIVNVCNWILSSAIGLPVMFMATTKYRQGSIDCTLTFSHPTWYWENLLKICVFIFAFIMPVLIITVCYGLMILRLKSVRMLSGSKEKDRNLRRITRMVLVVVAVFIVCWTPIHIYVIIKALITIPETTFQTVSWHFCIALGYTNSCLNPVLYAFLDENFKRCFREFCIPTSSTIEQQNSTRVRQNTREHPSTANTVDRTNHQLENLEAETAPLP

Compound | Emax [1] [%] | EC50 [2] [nM] | Ki [3] [nM] | inhibition [4] [%] | Activity [5] | Activity [6]
COC(=O)[C@@H]1C[C@H](I)C(=O)[C@H]2[C@@]1(C)CC[C@H]1C(=O)O[C@H](c3ccoc3)C[C@]21C | 92 | 648 | 198 | > 50 | inactive | inactive
COC(=O)[C@@H]1CCC(=O)[C@H]2[C@@]1(C)CC[C@H]1C(=O)O[C@H](c3ccoc3)C[C@]21C | 124 | 266 | 51.6 | > 50 | inactive | inactive
COC(=O)[C@@H]1C[C@@H](Br)C2=C3[C@@](C)(C[C@H](c4ccoc4)O2)C(C(=O)O)CC[C@]31C (stereo partly drawn) |  |  | > 1000 | > 50 | inactive | inactive
COC(=O)[C@@H]1C[C@@H](Br)C(=O)[C@H]2[C@@]1(C)CC[C@H]1C(=O)O[C@H](c3ccoc3)C[C@]21C | 90 | 282 | 42.3 | > 50 | inactive | inactive
COC(=O)[C@@H]1CC(C(=O)O)C(=O)[C@H]2[C@@]1(C)CC[C@H]1C(=O)O[C@H](c3ccoc3)C[C@]21C (stereo partly drawn) | 103 | 83.3 | 24.3 | > 50 | inactive | inactive
COC(=O)[C@@H]1C[C@H](Br)C(=O)[C@H]2[C@@]1(C)CC[C@H]1C(=O)O[C@H](c3ccoc3)C[C@]21C | 87 | 1970 | 422 | > 50 | inactive | inactive
COC(=O)[C@@H]1C[C@@H](I)C(=O)[C@H]2[C@@]1(C)CC[C@H]1C(=O)O[C@H](c3ccoc3)C[C@]21C | 46 | 239 | 245 | > 50 | inactive | inactive
COC(=O)[C@@H]1C[C@H](Cl)C(=O)[C@H]2[C@@]1(C)CC[C@H]1C(=O)O[C@H](c3ccoc3)C[C@]21C |  |  | > 1000 | > 50 | inactive | inactive
COC(=O)[C@@H]1C[C@@H](Cl)C(=O)[C@H]2[C@@]1(C)CC[C@H]1C(=O)O[C@H](c3ccoc3)C[C@]21C | 112 | 673 | 167 | > 50 | inactive | inactive
COC(=O)[C@@H]1C[C@H](F)C(=O)[C@H]2[C@@]1(C)CC[C@H]1C(=O)O[C@H](c3ccoc3)C[C@]21C |  |  | > 1000 | > 50 | inactive | inactive
COC(=O)[C@@H]1C[C@H](OC(C)=O)C(=O)[C@H]2[C@@]1(C)CC[C@H]1C(=O)O[C@H](c3ccoc3)C[C@]21C |  |  |  | > 50 | inactive | inactive
COC(=O)[C@@H]1C[C@@H](F)C(=O)[C@H]2[C@@]1(C)CC[C@H]1C(=O)O[C@H](c3ccoc3)C[C@]21C | 77 | 539 | 197 | > 50 | inactive | inactive
